# Test results from publication PMC6934184, “Selective DNA-PKcs inhibition extends the therapeutic index of localized radiotherapy and chemotherapy” (The Journal of Clinical Investigation, 2019).
# Molecular target: T1, SGKL (SGK3) (Homo sapiens, UniProt Q96BR1)
# T1 construct: purchased Thermo Fisher Scientific (Life Technologies) SelectScreen
# Assay: SelectScreen Z'LYTE
# Format: biochemical
# Method in brief: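 SelectScreen broad panel; activity (Z'LYTE, Adapta) plus binding formats. ATP: Km app for CSF1R Z'LYTE; 10 for CAMK1 Adapta. Readout = % per kinase.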
# T1 sequence (Q96BR1 whole entry): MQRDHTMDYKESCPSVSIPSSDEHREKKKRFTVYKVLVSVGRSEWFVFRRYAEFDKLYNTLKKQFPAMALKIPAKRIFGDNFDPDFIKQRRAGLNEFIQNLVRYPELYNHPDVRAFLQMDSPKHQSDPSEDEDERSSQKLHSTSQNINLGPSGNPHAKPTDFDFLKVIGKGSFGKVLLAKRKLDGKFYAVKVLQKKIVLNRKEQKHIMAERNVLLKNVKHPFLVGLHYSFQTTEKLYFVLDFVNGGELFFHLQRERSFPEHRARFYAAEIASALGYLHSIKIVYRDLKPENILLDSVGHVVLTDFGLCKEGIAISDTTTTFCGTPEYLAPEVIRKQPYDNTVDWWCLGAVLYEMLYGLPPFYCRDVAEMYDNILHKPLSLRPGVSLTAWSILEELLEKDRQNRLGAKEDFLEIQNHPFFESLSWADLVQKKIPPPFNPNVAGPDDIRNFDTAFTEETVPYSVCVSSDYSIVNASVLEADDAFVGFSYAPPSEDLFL
compound,measurement,value
CN(C(=O)CN1CCOCC1)c1ccc2sc3c(-c4cccc5c(=O)cc(N6CC7CCC(C6)O7)oc45)cccc3c2c1 [NU5455],inhibition at 1 µM,-4.6%
